Measurements published in patent publication US9937194B1, “Compounds and methods for treating inflammatory diseases” (priority 2009, dated 2018).
≈ marks a conversion by molar mass, not a printed value. Where “and” joins values, the source holds several entries; their conditions need not be identical. Equal entries are not always repeated.

What was measured:
[1] = tested on: S. typhimurium ATCC 14028; experiment: MIC; assay type: cell-based; details: in µg/mL
HDAC activity = experiment: H2O2-induced reduction of HDAC activity in PMA-differentiated U937 cells; assay type: cell-based, human; details: for restoration of H2O2-reduced HDAC activity (%): test concentration not given, bracketed second value not explained
Summary of the method: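 U937 cells PMA-differentiated for 3 days, pretreated with compound for 20 min, then exposed to 200 μM H2O2 for 4 h with Fluor de Lys substrate present. Whole-cell HDAC activity measured fluorimetrically. Data expressed as fold change versus H2O2-only control, mean of four experiments ± SEM.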

[2] = assay type: cell-based; details: test concentration not given
E. coli ATCC 25922 = experiment: MIC; assay type: cell-based; details: in µg/mL
[3] = tested on: S. aureus ATCC 29213 (MSSA) MLS-S; experiment: MIC; assay type: cell-based
K. pneumonia 13883 = experiment: MIC; assay type: cell-based; details: in µg/mL
P. aeruginosa ATCC 27853 = experiment: MIC; assay type: cell-based
IL-8 = experiment: LPS-induced IL-8 release in PMA-differentiated U937 cells (ELISA); assay type: cell-based, human; details: for IL-8 inhibition (%): test concentration not given
Summary of the method: (§1)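 PMA-differentiated U937 macrophage-like cells were pretreated with compound for 1 hr, then stimulated with LPS (100 ng/ml) for 4 hrs. Released IL-8 and TNFα were quantified by sandwich ELISA. Values are means of three experiments ± SEM.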

MMP9 [4] = experiment: PMA-induced MMP9 expression in U937 cells (gelatin zymography); assay type: cell-based, human; details: test concentration not given; bracketed second value not explained
S. pneumoniae ATCC 49619 = experiment: MIC; assay type: cell-based
TNFα = experiment: LPS-induced TNFα release in PMA-differentiated U937 cells (ELISA); assay type: cell-based, human; details: for TNFα inhibition (%): test concentration not given
Summary of the method: as §1

E. faecalis ATCC 29212 = experiment: MIC; assay type: cell-based
S. pyogenes ATCC 19615 = experiment: MIC; assay type: cell-based; details: in µg/mL
H. influenzae ATCC 49247 = experiment: MIC; assay type: cell-based
[5] = tested on: N. gonorrhoeae ATCC 49226; experiment: MIC; assay type: cell-based; design: unit not given beside the values
U937 cells [6] = details: H2O2-induced insensitivity on TNF-α-induced IL-8 production; cited from earlier work
A/J mice exposed to LPS = experiment: Anti-inflammatory activity in vivo: A/J mice exposed to LPS intranasally; details: intranasal, 1 hr before LPS challenge
PBMCs from COPD patients = details: PBMCs obtained from COPD patients; cited from earlier work
HDAC2 = details: reduced by oxidative stress; cited from earlier work
Akt = experiment: H2O2-induced phosphorylation of Akt in PMA-differentiated U937 cells (western blot); assay type: cell-based, human; details: PMA-differentiated U937; H2O2 1 mM 30 min
Summary of the method: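 PMA-differentiated U937 macrophage-like cells pretreated with compound 20 min, then stimulated with 1 mM H2O2 for 30 min. pAkt measured by western blot densitometry, normalised to total protein and expressed as fold change versus H2O2-only control; mean ± SEM of 3–4 experiments.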

U937 cells [7] = experiment: H2O2-induced steroid insensitivity in U937 cells (dexamethasone IC50 on TNFα-induced IL-8); assay type: cell-based, human; details: highest concentration tested (100 μM); H2O2 200 μM
Protocol: Cytokine ELISA. LPS-induced IL-8, TNFα concentrations and TNFα-induced IL-8 concentrations are determined by sandwich ELISA according to the manufacturer's instructions (R&D Systems Europe). IC50 values for dexamethasone on IL-8 production are calculated using the computer program Prism 4.0 (GraphPad Software Inc., San Diego, Calif.) as a marker for steroid sensitivity.
Restoration of steroid sensitivity. U937 cells: U937 are treated with oxidative stress (H2O2, 200 μM or 0.15 dilution CSM (cigarette smoke conditioned medium)) and 4 hours later, stimulated with TNFα (10 ng/ml) in the presence of dexamethasone (10^−11-10^−6M). Supernatant and cells are collected 24 hrs after stimulation and IL-8 is measured by conventional ELISA. As the index of corticosteroid sensitivity, IC50 of dexamethasone is calculated. Test compounds are treated 20 min before oxidative stress treatment.
Effects of compounds on H2O2-induced steroid insensitivity in U937 cells. Cells stimulated with H2O2 (200 μM) overnight are incubated with compounds described herein for 30 min under H2O2 (200 μM) exposure. The cells are treated with dexamethasone (10^−11 to 10^−6 M) for 20 min, followed by the TNFα stimulation overnight. TNFα-induced IL-8 release is evaluated by ELISA and IC50 values for dexamethasone on IL-8 production are calculated using Prism. Data are expressed as fold changes against positive control treated with H2O2 only. Values represent means of four experiments±SEM. H2O2 exposure reduces dexamethasone sensitivity by approximately 4 fold based on calculated IC50 values of TNFα-induced IL-8 production.

MMP9 [8] = details: macrophages in sputum of COPD patients; cited from earlier work
HDAC2 mRNA = experiment: Cigarette smoke extract-induced reduction of HDAC2 mRNA in A549 cells; assay type: cell-based, human; details: A549; CSE
Protocol: Preparations of cigarette smoke extract. To prepare the cigarette smoke extract, two full-strength Marlboro cigarettes (filters removed; Phillip Morris USA, Richmond, Va.) are combusted through a modified 60-ml syringe apparatus, and the smoke passed through 20 ml of DMEM medium. Each cigarette generally yields five draws of the syringe (to the 60-ml mark), with each individual draw taking approximately 10 s to complete. Cigarette smoke extract is then passed through a 0.20-μm filter to sterilize and remove particulate matter and is used immediately unless otherwise stated.
Quantitative RT-PCR. Total RNA extraction and reverse transcription are performed using an RNeasy kit (QIAGEN, Crawley, UK) and a High-Capacity cDNA Reverse Transcription Kits (Applied Biosystems, Foster City, Calif.). Gene transcript level of HDAC2 (HS00231032_M1, Applied Biosystems, California, USA) and the house-keeping gene, guanine nucleotide binding protein beta polypeptide-2-like 1 (GNB2L1) (HS00272002_M1, Applied Biosystems) are quantified by real-time PCR using a TaqMan® Gene Expression Master Mix (Applied Biosystems) on a Rotor-Gene 6000 (Corbett Research, Cambridge, UK). Transcripts are analysed by the delta (D) CT method and variations in cDNA concentrations between different samples were corrected using GNB2L1.
Effects of macrolides on cigarette smoke extract-induced (CSE-induced) reduction of HDAC2 mRNA in A549 cells. Cells pretreated with compounds described herein for 30 min are exposed to CSE (0.15 O.D.) for 1 hr. The cells are washed twice and incubated with medium only for 4 hrs. Data are expressed as % reduction from baseline (left) or % increase from baseline under H2O2. Values represent means of three experiments±SEM. Example 33 reverses cigarette smoke extract-induced (CSE-induced) reduction of HDAC2 mRNA expression in A549 cells at concentrations of about 10 μM or greater, and with statistical significance of p<0.05 versus treatment with CSE only (one-way ANOVA with post hoc test, n=3) at doses of about 30 μM or greater.

[9] = tested on: S. pneumoniae 3773 (ErmB); experiment: MIC; assay type: cell-based
S. pyogenes ATCC 1721 = experiment: MIC; assay type: cell-based
S. pneumoniae 163 (MefA) = experiment: MIC; assay type: cell-based; details: in µg/mL
S. pneumoniae 303 (ErmB) = experiment: MIC; assay type: cell-based

SMILES | MIC S. typhimurium ATCC 14028 [1] | restoration of H2O2-reduced HDAC activity (%) (HDAC activity) | Cell Toxicity (% cell death) [2] [%] | MIC E. coli ATCC 25922 (E. coli ATCC 25922) | MIC S. aureus ATCC 29213 (MSSA) MLS-S [3] [µg/mL] | MIC K. pneumonia 13883 (K. pneumonia 13883) | MIC P. aeruginosa ATCC 27853 (P. aeruginosa ATCC 27853) [µg/mL] | IL-8 inhibition (%) (IL-8) | MMP9 inhibition (%) (MMP9 [4]) | MIC S. pneumoniae ATCC 49619 (S. pneumoniae ATCC 49619) [µg/mL] | TNFα inhibition (%) (TNFα) | MIC E. faecalis ATCC 29212 (E. faecalis ATCC 29212) [µg/mL] | MIC H. influenzae ATCC 49247 (H. influenzae ATCC 49247) [µg/mL] | MIC S. pneumoniae 3773 (ErmB) [9] [µg/mL] | MIC S. pyogenes ATCC 1721 (S. pyogenes ATCC 1721) [µg/mL] | MIC S. pneumoniae 163 (MefA) (S. pneumoniae 163 (MefA)) | other results
CCC1OC(=O)C(C)C(OC2OCC(O)C(NC)C2O)C(C)C(OC2OC(C)CC(N(C)C)C2O)C(C)(O)CC(C)CN(C(C)=O)C(C)C2OC(=O)OC12C (mixture of isomers) [Example 32] | >64 | 79 (65) % | 11 | >64 | 32 | >64 | > 64 | 55 | 40 (49) % | 32 | 73 | 32 |  |  |  |  | 
CCC1OC(=O)C(C)C(OC2OCC(O)C(N(C)C)C2O)C(C)C(OC2OC(C)CC(N(C)C)C2O)C(C)(O)CC(C)CN(C(C)=O)C(C)C2OC(=O)OC12C (mixture of isomers) [Example 40] | >64 | 26% | 26 | >64 | 16 | >64 | > 64 | 93 | 60 (38) % | 64 | 68 | 32 | > 64 |  |  |  | MIC S. pyogenes ATCC 19615 (S. pyogenes ATCC 19615): >64; MIC N. gonorrhoeae ATCC 49226 [5]: 8 and 16
CC[C@H]1OC(=O)[C@H](C)[C@@H](O[C@H]2C[C@@](C)(OC)[C@@H](O)[C@H](C)O2)[C@H](C)[C@@H](O[C@@H]2O[C@H](C)C[C@H](N(C)C)[C@H]2O)[C@](C)(O)C[C@@H](C)C(=O)[C@H](C)[C@@H](O)[C@]1(C)O [ERY, erythromycin] |  |  |  |  |  |  |  |  |  |  |  |  |  |  |  |  | restoration of HDAC activity compared with Example 33 (HDAC activity; PMA-differentiated U937, H2O2 200 μM 4 hrs): only at much higher doses than Example 33; HDAC activity reached compared with untreated controls (HDAC activity; PMA-differentiated U937, H2O2 200 μM, comparators at highest doses tested): only restore HDAC activity to levels comparable to untreated controls; restoration of corticosteroid sensitivity (reported) (U937 cells [6]): restore corticosteroid sensitivity; anti-inflammatory action in LPS-exposed A/J mice (A/J mice exposed to LPS): have anti-inflammatory action; restoration of corticosteroid sensitivity (reported) (PBMCs from COPD patients): restore corticosteroid sensitivity; HDAC2 promoter activity and protein expression (reported) (HDAC2): restore HDAC2 promoter activity and protein expression; inhibition of Akt phosphorylation compared with Example 33 (Akt): at comparable concentrations; restoration of dexamethasone sensitivity (U937 cells [7]): None of ERY, CLR, or AZI restored dexamethasone sensitivity; inhibition of LPS-induced IL-8 release compared with Example 33 (IL-8; LPS 100 ng/ml 4 hrs): did not show any inhibition at any concentration tested; MMP9 expression (reported) (MMP9 [8]): inhibited MMP9 expression; reversal of HDAC mRNA expression reduction compared with Example 33 (HDAC2 mRNA): only at much higher doses than Example 33; inhibition of LPS-induced TNFα release compared with Example 33 (TNFα; LPS 100 ng/ml 4 hrs): did not show any inhibition at any concentration tested
CC[C@H]1OC(=O)[C@H](C)C(=O)[C@H](C)[C@@H](O[C@@H]2O[C@H](COC(=O)c3ccccc3)[C@@H](N)[C@@H]2O)[C@@](C)(OC)C[C@@H](C)C(=O)[C@H](C)[C@H]2N(CCCCn3cc(-c4ccccn4)nn3)C(=O)O[C@]12C [Example 26] |  | 92% | −2 |  |  |  |  | −51 | 2% | 32 (≈ 35.9 µM) | −25 |  | > 64 | > 64 | > 64 | 64 | 
CC[C@H]1OC(=O)[C@@](C)(F)C(=O)[C@H](C)[C@@H](O[C@@H]2O[C@H](C)[C@@H](OC(=O)Nc3ccccc3)[C@H](N(C)C)[C@H]2O)[C@@](C)(OC)C[C@@H](C)C(=O)[C@H](C)[C@H]2N(CCCCn3cc(-c4ccccn4)nn3)C(=O)O[C@]12C [Example 27] |  | 75% | −7 |  |  |  |  | −43 | 1% | 32 (≈ 33.1 µM) | 34 |  | > 64 | > 64 | > 64 | 8 | MIC S. pneumoniae 303 (ErmB) (S. pneumoniae 303 (ErmB)): > 64 µg/mL
